In publication PMC6219668 (Oncotarget, 2018):
Like-named read-outs stand apart in the source and are kept apart here.

Tested on: panel of nearly 500 cancer cell lines
Test: Cancer Cell Line Encyclopedia profiling, 3-day CellTiter-Glo
Assay type: cell-based
Settings: read-out: IC50

Measured: IC50

CC(=O)c1c(C)c2cnc(Nc3ccc(N4CCNCC4)cn3)nc2n(C2CCCC2)c1=O [Palbociblib]
7.19 µM: colo205 (large_intestine)
7.34 µM: cell line ykg1, central_nervous_system
> 8 µM: 22rv1 (prostate) | 639v (urinary_tract) | 5637 (urinary_tract) | 8505c (thyroid) | a172 (central_nervous_system) | a204 (soft_tissue) | a253 (salivary_gland) | a375 (skin) | a549 (lung) | a673 (bone) | a2058 (skin) | a2780 (ovary) | amo1 (haematopoietic_and_lymphoid_tissue) | aspc1 (pancreas) | az521 (stomach) | bftc909 (kidney) | bgc823 (stomach) | bl41 (haematopoietic_and_lymphoid_tissue) | bt20 (breast) | bt474 (breast) | bt549 (breast) | c2bbe1 (large_intestine) | c3a (liver) | c32 (skin) | caki2 (kidney) | cal27 (upper_aerodigestive_tract) | cal78 (bone) | cal851 (breast) | calu1 (lung) | calu3 (lung) | cama1 (breast) | capan2 (pancreas) | cas1 (central_nervous_system) | cell line tyknu, ovary | cell line u87mg, central_nervous_system | cell line u118mg, central_nervous_system | cell line u2os, bone | cell line u937, haematopoietic_and_lymphoid_tissue | cell line uacc812, breast | cell line umuc3, urinary_tract | cell line vmrcrcw, kidney | cell line vmrcrcz, kidney | cell line zr7530, breast | chl1 (skin) | colo679 (skin) | corl23 (lung) | corl23cpr (lung) | cov318 (ovary) | cov504 (ovary) | daoy (central_nervous_system) | dbtrg05mg (central_nervous_system) | dkmg (central_nervous_system) | dms114 (lung) | dov13 (ovary) | du145 (prostate) | eb1 (haematopoietic_and_lymphoid_tissue) | eb2 (haematopoietic_and_lymphoid_tissue) | ebc1 (lung) | efe184 (endometrium) | efm19 (breast) | efo21 (ovary) | efo27 (ovary) | en (endometrium) | es2 (ovary) | fadu (upper_aerodigestive_tract) | fuov1 (ovary) | g361 (skin) | g401 (soft_tissue) | gb1 (central_nervous_system) | gciy (stomach) | glc82 (lung) | gms10 (central_nervous_system) | h4 (central_nervous_system) | hcc15 (lung) | hcc56 (large_intestine) | hcc70 (breast) | hcc78 (lung) | hcc1187 (breast) | hcc1569 (breast) | hcc1806 (breast) | hcc2935 (lung) | hcc4006 (lung) | hct15 (large_intestine) | hct116 (large_intestine) | hec1a (endometrium) | hec59 (endometrium) | hec151 (endometrium) | hec251 (endometrium) | hec265 (endometrium) | hel9217 (haematopoietic_and_lymphoid_tissue) | hep3b217 (liver) | hepg2 (liver) | heya8 (ovary) | hh (haematopoietic_and_lymphoid_tissue) | hle (liver) | hlf (liver) | hmc18 (breast) | hmcb (skin) | hos (bone) | hpac (pancreas) | hs229t (lung) | hs294t (skin) | hs578t (breast) | hs683 (central_nervous_system) | hs695t (skin) | hs739t (breast) | hs746t (stomach) | hs766t (pancreas) | hs840t (upper_aerodigestive_tract) | hs852t (skin) | hs936t (skin) | hs939t (skin) | hs944t (skin) | hsc2 (upper_aerodigestive_tract) | ht29 (large_intestine) | ht144 (skin) | ht1080 (soft_tissue) | ht1197 (urinary_tract) | ht1376 (urinary_tract) | ht (haematopoietic_and_lymphoid_tissue) | hucct1 (biliary_tract) | huh1 (liver) | hupt3 (pancreas) | hupt4 (pancreas) | hut78 (haematopoietic_and_lymphoid_tissue) | ialm (lung) | igr37 (skin) | igr39 (skin) | igrov1 (ovary) | imr32 (autonomic_ganglia) | ipc298 (skin) | istmes1 (pleura) | j82 (urinary_tract) | jhh2 (liver) | jhh4 (liver) | jhh6 (liver) | jhos2 (ovary) | jhos4 (ovary) | jm1 (haematopoietic_and_lymphoid_tissue) | jmsu1 (urinary_tract) | k029ax (skin) | kals1 (central_nervous_system) | karpas422 (haematopoietic_and_lymphoid_tissue) | kg1 (haematopoietic_and_lymphoid_tissue) | kle (endometrium) | kmbc2 (urinary_tract) | kmrc1 (kidney) | kms12bm (haematopoietic_and_lymphoid_tissue) | kns42 (central_nervous_system) | kns60 (central_nervous_system) | kp1n (pancreas) | kp1nl (pancreas) | kp2 (pancreas) | kp3 (pancreas) | kp4 (pancreas) | kyse30 (oesophagus) | kyse410 (oesophagus) | kyse520 (oesophagus) | l33 (pancreas) | lc1sqsf (lung) | lclc103h (lung) | ln18 (central_nervous_system) | ln229 (central_nervous_system) | lounh91 (lung)
2.59 µM: ke97 (haematopoietic_and_lymphoid_tissue)
7.56 µM: au565 (breast)
2.51 µM: hcc1954 (breast)
0.428 µM: istmes2 (pleura)
6.5 µM: ci1 (haematopoietic_and_lymphoid_tissue)
3.17 µM: detroit562 (upper_aerodigestive_tract)
0.446 µM: hs895t (skin)
1.92 µM: bdcm (haematopoietic_and_lymphoid_tissue)
3.54 µM: ke39 (stomach)
6.25 µM: ku812 (haematopoietic_and_lymphoid_tissue)
6.7 µM: 769p (kidney)
4.08 µM: gct (soft_tissue)
7.35 µM: karpas299 (haematopoietic_and_lymphoid_tissue)
1.86 µM: cell line vmrclcd, lung
1.74 µM: hgc27 (stomach)
1.67 µM: kms26 (haematopoietic_and_lymphoid_tissue)
5.34 µM: 8305c (thyroid)
6.83 µM: colo320 (large_intestine)
1.48 µM: colo201 (large_intestine)
7.05 µM: an3ca (endometrium)
5.49 µM: cmk (haematopoietic_and_lymphoid_tissue)
4.96 µM: hec1b (endometrium)
4.53 µM: bl70 (haematopoietic_and_lymphoid_tissue)
